Test results as given in ChEMBL document CHEMBL1157742, “Oxepinochromenones, furochromenone, and their putative precursors from the endolichenic fungus Coniochaeta sp” (J Nat Prod, 2010).

Tests used:
Type in all cases: functional, cell-based
HeLa = assay: Cytotoxicity against human HeLa cells after 48 hrs by MTT assay
HepG2 = assay: Cytotoxicity against human HepG2 cells after 48 hrs by MTT assay; conditions: HepG2, 48 h
A549 = assay: Cytotoxicity against human A549 cells after 48 hrs by MTT assay; conditions: A549, 48 h
MDA-MB-231 = assay: Cytotoxicity against human MDA-MB-231 cells after 48 hrs by MTT assay; conditions: MDA-MB-231, 48 h

Structure (SMILES): COC(=O)[C@@]1(O)c2c(oc3cc(C)cc(O)c3c2=O)O[C@@H]1CCO [CONIOFUROL A]
- IC50 (HeLa): > 120 µM
- IC50 (HepG2): > 120 µM
- IC50 (A549): > 120 µM
- IC50 (MDA-MB-231): > 120 µM

Structure (SMILES): COC(=O)[C@@H]1c2c(oc3cc(C)cc(O)c3c2=O)OC=C[C@@H]1O [CONIOXEPINOL A]
- IC50 (HeLa): 104 µM
- IC50 (HepG2): > 120 µM
- IC50 (A549): > 120 µM
- IC50 (MDA-MB-231): > 120 µM

Structure (SMILES): COC(=O)[C@@H]1c2c(oc3cc(CO)cc(O)c3c2=O)OC=C[C@@H]1O [CONIOXEPINOL B]
- IC50 (HeLa): 36.2 µM
- IC50 (HepG2): > 120 µM
- IC50 (A549): > 120 µM
- IC50 (MDA-MB-231): > 120 µM

Structure (SMILES): COC(=O)[C@@]1(O)c2c(oc3cc(C)cc(O)c3c2=O)OC=C[C@@H]1O [CONIOXEPINOL C]
- IC50 (HeLa): > 120 µM
- IC50 (HepG2): > 120 µM
- IC50 (A549): 83.6 µM
- IC50 (MDA-MB-231): 112 µM

Structure (SMILES): COC(=O)[C@]12Oc3cc(C)cc(O)c3C(=O)C1=C(O)OC=C[C@H]2O [CONIOXEPINOL D]
- IC50 (HeLa): > 120 µM
- IC50 (HepG2): > 120 µM
- IC50 (A549): 40.9 µM
- IC50 (MDA-MB-231): 41.4 µM

Structure (SMILES): O=c1[nH]cc(F)c(=O)[nH]1 [FLUOROURACIL]
- IC50 (HeLa): 10 µM
